Assay results from patent publication US20080242870A1 (priority 2006, published 2008).
Where two headings read alike, the source gives them in different places.

How the values were obtained:
[1] = Absorption spectrum of perylene diimide (Example 5); assay type: physicochemical; conditions: CH2Cl2
[2] = Emission spectrum and quantum yield of perylene diimide (Example 5); assay type: physicochemical
[3] = Fluorescence lifetime by TCSPC (Example 5); assay type: physicochemical; conditions: room temperature, CH2Cl2
Experimental: (§1) Luminescence lifetimes were measured with an IBH time-correlated single photon counting (TCSPC) system equipped with an IBH Model TBX-04 Photon Detection Module. The excitation source for the TCSPC measurements was a pulsed LED (IBH NanoLED, 455 nm, 1.3 ns pulse duration or 403 nm, <200 ps pulse duration) with a repetition rate of 1 MHz. All data was analyzed by iterative reconvolution of the decay profile (10,000 counts at the peak channel) with the instrument response function using software provided by the instrument manufacturer.

Solubility = conditions: polar organic solvents
[4] = cited from earlier work
[5] = Sodium sensing: quantum yield vs sodium perchlorate concentration; conditions: in acetonitrile
Experimental: The benzo 15-crown-5 anthracene diimide derivative was synthesized because crown ethers are known for their ability to bind with metals. […] The extinction coefficient, ∈, was determined to be 16,000 M^−1 cm^−1 and the quantum yield, Φ, 0.02 (both were measured in acetonitrile). The emission spectrum for this compound was more complicated than the others. An excimer effect was evident in higher concentration samples and was more prominent in non-polar solvents. The excimer complicated the lifetime in toluene with a short component for the excited dimer state.

[6] = not given; remark: listed apart in the source
[7] = depending on the solvent
Experimental: as §1

[8] = Fluorescence quenching by 2,4-dinitrotoluene (Stern-Volmer); conditions: concentrated and dilute solutions in toluene

With CCCCCCCCn1c(=O)c2c(-c3ccccc3)c3cccc4c3c(c3cccc5c(-c6ccccc6)c6c(=O)n(CCCCCCCC)c(=O)c6c4c53)c2c1=O [Compound 59, N,N′-Bis(octyl)-3,9-bis(phenyl)-perylene-1,2,7,8-tetracarboxyl diimide] the extinction coefficient ([1]; at absorption λmax) was 29,000 M^−1 cm^−1, the “absorption λmax” value ([1]; room temperature) was ~491 nm and the quantum yield ([2]; measured against fluorescein) was 0.67. The “Stokes' shift” value ([2]; room temperature, CH2Cl2) was 26 nm, the “fluorescence λmax” value ([2]; room temperature, CH2Cl2, 425 nm excit.) was 517 nm and the single exponential lifetime [3] was 5.01 ns. The solubility (Solubility) was “soluble in polar organic solvents”.
For F[P-](F)(F)(F)(F)F.F[P-](F)(F)(F)(F)F.[Ru+2].c1ccc(-c2ccccn2)nc1.c1ccc(-c2ccccn2)nc1.c1ccc(-c2ccccn2)nc1 [[Ru(bpy)3](PF6)2], the Φr of standard ([4]; in CH3CN) is listed as 0.062.
For c1ccc2cc3ccccc3cc2c1 [anthracene], the Φr of standard ([4]; in EtOH) is listed as 0.27.
In the case of “N,N′-Bis(benzo 15-crown-5)-1,5-bis(phenyl)anthracene-2,3,6,7-tetracarboxyl diimide”, the sodium sensing [5] is reported as “effective sensor of sodium perchlorate”, the “extinction coefficient, ∈” value (in acetonitrile) is reported as 16,000 M^−1 cm^−1 and the “quantum yield, Φ” value ([6]; in acetonitrile) is reported as 0.02.
For “N,N′-Bis(p-(tert-butyl)phenyl)-1,5-bis(phenyl)anthracene-2,3,6,7-tetracarboxyl diimide”, the “extinction coefficient, ∈” value (in toluene) was 8,500 M^−1 cm^−1, the “quantum yield, Φ” value ([6]; in toluene) was 0.29 and the “lifetime (single exponential)” value [7] was “around 5.5 ns”.
With “N,N′-Bis(p-triphenyl amine)-1,5-bis(phenyl)anthracene-2,3,6,7-tetracarboxyl diimide” the “2,4-dinitrotoluene sensing (quenching)” value [8] was “effective 2,4-dinitrotoluene (DNT) sensor”, the “extinction coefficient, ∈” value (in toluene) was 22,000 M^−1 cm^−1 and the “quantum yield, Φ” value ([6]; in toluene) was 0.09.
